Legend:
[1] = system: human squamous cell carcinoma of the head and neck (SCCHN) cell line FaDu; experiment: FaDu growth inhibition assay; type: cell-based; details: 3 days incubation, CellTiter-Glo
Protocol: In this assay, the growth inhibitory activity of test compounds in a human squamous cell carcinoma of the head and neck (SCCHN) cell line FaDu was measured. FaDu cells were maintained in an RPMI-1640 (Wako Pure Chemical Industries, Ltd., 187-02021) medium containing 10% fetal bovine serum (FBS: Nichirei, 12D168), and penicillin and streptomycin in a 5% CO2 incubator (37° C.). To each well of a 96 well plate (Becton, Dickinson and Company, 353219), 75 μL of FaDu cell suspension adjusted to a concentration of 4×10^4 cells/mL with the culture medium was added, and the cells were incubated overnight in a 5% CO2 incubator (37° C.). On the next day, 25 μL of Compound (1) or Halichondrin B in three-fold dilution series suspended in the culture medium was added to each well, and the resultant was incubated for 3 days in a 5% CO2 incubator (37° C.). Then, cell viability was determined by CellTiter-Glo® Luminescent Cell Viability Assay (Promega) with EnVision 2103 Multilabel Reader (Perkin-Elmer, Wellesley, Mass.). Value of the wells containing cells without adding the test compounds was defined as 100% and the value of the wells containing no cells was defined as 0%. The concentration of the test compound necessary for inhibiting the cell growth by 50% (i.e., an IC50 value) was calculated, and shown in Table 1.

[2] = system: CT26 subcutaneous syngeneic model; experiment: Antitumor activity in CT26 subcutaneous syngeneic model in combination with anti-mPD-1 antibody in mice; type: in vivo
Protocol: A murine undifferentiated colon carcinoma cell line CT26, which had been cultured in an RPMI-1640 medium containing 10% FBS, and penicillin and streptomycin, was adjusted to a concentration of 2×10^7 cells/mL with Hank's Balanced Salt Solution to prepare a cell suspension. On day 1, the cell suspension was inoculated in a volume of 100 μL into a subcutaneous part of a right flank of BALB/c mice, 6 weeks of ages (BALB/cAnNCrlCrlj, female, Charles River Laboratories Japan, Inc.). Two days after the cell inoculation, the mice were randomly divided into four groups and each group consists of 8 mice. The shortest diameter and the longest diameter of a tumor in each mouse were measured by using an electronic digital caliper (Digimatic™ caliper, Mitutoyo Corporation), so as to calculate the volume of the tumor in accordance with the following calculation formula: Tumor volume (mm^3)=Longest diameter (mm)×Shortest diameter (mm)×Shortest diameter (mm)/2 T/C=(mean tumor volume of treated group)/(mean tumor volume of control group) Inhibition of tumor growth (%)=(1−T/C)×100
The test compound was intravenously administered at 0.09 mg/kg on days 3 and 11. Anti-mPD-1 antibody (BE0146, Bio X Cell) was intravenously administered at 10 mg/kg on days 3, 7, 11, and 15.

[3] = system: OE33 (human adenocarcinoma of the esophagus); experiment: In vitro antiproliferative activity, OE33; type: cell-based; details: OE33, 72 hours
Protocol: (§1) The in vitro antiproliferative assays for Compound (1) were conducted using a small panel of cancer cell lines including human squamous cell carcinoma of the esophagus (OE21, TE-8), human adenocarcinoma of the esophagus (OE33), and human uterine sarcoma (MES-SA, MES-SA-Dx5-Rx1). All cell lines were cultured in RPMI-1640 medium containing 10% FBS, and penicillin-streptomycin (culture medium), in a 5% CO2 incubator (37° C.). To each well of a 96 well plate (Becton, Dickinson and Company, 353219), 75 μL of cell suspension adjusted to a concentration of 4×10^4 cells/mL with the culture medium was added, and the cells were incubated overnight in a 5% CO2 incubator (37° C.). On the next day, 25 μL of Compound (1) in three-fold dilution series suspended in the culture medium was added to each well, and the resultant was incubated for 72 hours in a 5% CO2 incubator (37° C.). Then, cell viability was determined by CellTiter-Glo® Luminescent Cell Viability Assay (Promega) with 2013 EnVision™ Multilabel Reader (Perkin-Elmer, Wellesley, Mass.). Value of the wells containing cells without adding the test compounds was defined as 100% and the value of the wells containing no cells was defined as 0%. […] The P-gp susceptibility was calculated as the ratio of the IC50 value in MES-SA-Dx5-Rx1 cells, which overexpress P-gp, to the IC50 value in MES-SA cells.

[4] = system: MES-SA (human uterine sarcoma); experiment: In vitro antiproliferative activity, MES-SA; type: cell-based; details: 72 hours
Protocol: as §1

[5] = system: MES-SA (human uterine sarcoma) xenograft; experiment: Antitumor effects in MES-SA soft tissue sarcoma xenograft model in mice as monotherapy; type: in vivo; details: 180 μg/kg intravenously on Day 1 and Day 8
Protocol: A human uterine sarcoma cell line MES-SA, which had been cultured in an RPMI-1640 containing 10% FBS, and penicillin-streptomycin, was adjusted to a concentration of 2×10^8 cells/mL with Hanks' Balanced Salt Solution to prepare a cell suspension, and the suspension was mixed with Geltrex® (Thermo Fisher Scientific Inc., #A1413202) in a ratio of 1:1 to prepare a cell suspension in a concentration of 1×10^8 cells/mL. The cell suspension was inoculated in a volume of 100 μL into a subcutaneous part of a right flank of nude mice, 6 weeks of ages (CAnN.Cg-Foxnlnu/CrlCrlj, female, Charles River Laboratories Japan Inc.). Six days after cell inoculation (Day 1), the shortest diameter and the longest diameter of a tumor in each mouse were measured by using an electronic digital caliper (Digimatic™ caliper, Mitutoyo Corporation), so as to calculate the volume of the tumor in accordance with the following calculation formulae: Tumor volume (mm^3)=Longest diameter (mm)×Shortest diameter (mm)×Shortest diameter (mm)/2 Relative tumor volume (RTV)=Tumor volume (day X)/Tumor volume (the first day)
On the basis of the volumes of tumors obtained on Day 1, the mice were grouped such that averages of the tumor volumes were substantially equal among the groups. The experiment was conducted on groups each consisting of 6 mice. […]

SMILES: C=C1C[C@@H]2CC[C@@]34C[C@H]5O[C@H]6[C@@H](O3)[C@H]3O[C@H](CC[C@@H]3O[C@H]6C5O4)CC(=O)O[C@@H]3[C@@H](C)[C@@H]4O[C@@H]5C[C@]6(C[C@@H]7O[C@]8(C[C@H](C)[C@@H]9O[C@H](CN)[C@H](O)C[C@@H]9O8)C[C@H](C)[C@@H]7O6)O[C@@H]5C[C@@H]4O[C@H]3C[C@H]3O[C@@H](CC[C@@H]1O2)C[C@@H](C)C3=C [Compound (1)]
- IC50 [1]: 0.0714 nM
- Inhibition of tumor growth on day 15 (%) ([2]; 0.09 mg/kg intravenously + anti-mPD-1 antibody 10 mg/kg): 62%
- Inhibition of tumor growth on day 15 (%) ([2]; 0.09 mg/kg intravenously on days 3 and 11, without antibody): 30%
- antiproliferative activity [3]: potent antiproliferative agent
- antiproliferative activity [4]: potent antiproliferative agent
- antitumor activity [5]: tumor growth delay
